Test results as given in ChEMBL document CHEMBL1151557, “Simplified analogs of himbacine displaying potent binding affinity for muscarinic receptors” (Bioorg Med Chem Lett, 1993).

Tests used:
[1] = molecular target: T1, Muscarinic acetylcholine receptor M1 (Homo sapiens, UniProt P11229); assay: Displacement of [3H]QNB from muscarinic receptor 1 expressed in CHO-K1 cells; assay type: cell-based
T1 sequence (P11229 whole entry): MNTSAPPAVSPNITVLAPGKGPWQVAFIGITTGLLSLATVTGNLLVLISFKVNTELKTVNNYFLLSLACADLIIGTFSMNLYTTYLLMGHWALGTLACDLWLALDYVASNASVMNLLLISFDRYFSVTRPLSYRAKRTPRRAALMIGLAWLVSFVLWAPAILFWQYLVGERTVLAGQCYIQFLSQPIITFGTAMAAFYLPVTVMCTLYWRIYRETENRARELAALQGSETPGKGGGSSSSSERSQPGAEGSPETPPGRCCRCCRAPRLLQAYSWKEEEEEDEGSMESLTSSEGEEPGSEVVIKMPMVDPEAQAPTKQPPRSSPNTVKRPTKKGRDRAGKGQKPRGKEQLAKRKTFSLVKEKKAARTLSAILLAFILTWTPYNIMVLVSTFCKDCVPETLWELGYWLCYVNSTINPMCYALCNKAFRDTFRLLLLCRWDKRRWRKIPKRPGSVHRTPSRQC

[2] = molecular target: T2, Muscarinic acetylcholine receptor M2 (Rattus norvegicus, UniProt P10980); assay: Displacement of [3H]QNB from rat brain stem muscarinic receptor 2 (M2)
T2 sequence (P10980 whole entry): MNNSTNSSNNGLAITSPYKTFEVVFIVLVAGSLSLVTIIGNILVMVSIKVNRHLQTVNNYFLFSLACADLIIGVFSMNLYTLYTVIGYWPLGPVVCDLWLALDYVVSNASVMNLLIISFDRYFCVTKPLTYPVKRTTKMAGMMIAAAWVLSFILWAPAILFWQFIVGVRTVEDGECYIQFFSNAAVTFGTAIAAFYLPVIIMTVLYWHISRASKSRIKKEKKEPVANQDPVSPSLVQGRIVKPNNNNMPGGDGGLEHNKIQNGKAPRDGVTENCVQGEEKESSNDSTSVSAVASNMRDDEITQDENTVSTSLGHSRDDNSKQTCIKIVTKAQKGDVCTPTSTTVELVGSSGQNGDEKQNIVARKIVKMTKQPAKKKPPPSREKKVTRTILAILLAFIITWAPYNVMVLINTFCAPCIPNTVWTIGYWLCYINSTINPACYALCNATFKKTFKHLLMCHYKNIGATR

| Structure (SMILES) | Kd [1] | Kd [2] |
| --- | --- | --- |
| C[C@@H]1OC(=O)[C@H]2C[C@H]3CCCC[C@@H]3[C@@H](/C=C/[C@H]3CCC[C@H](C)N3C)[C@@H]12 [HIMBACINE] | 168 nM | 9.05 nM |
| CN1CCCCC1/C=C/C1c2ccccc2Cc2ccccc21 (racemic) | 1.75 nM | 20.5 nM |
| CN1CCCCC1CC=C1c2ccccc2Cc2ccccc21 (racemic) | 2.7 nM | 3 nM |
| CN1CCCC[C@@H]1/C=C/C1c2ccccc2Cc2ccccc21 | 1.53 nM | 3.17 nM |
| CN1CCCCC1CCC=C1c2ccccc2Cc2ccccc21 (stereo not given) | 4.99 nM | 7.64 nM |
| CN1CCCCC1/C=C/c1c2ccccc2cc2ccccc12 (stereo not given) | 679 nM | 635 nM |
| CN1CCCC[C@H]1CC=C1c2ccccc2Cc2ccccc21 | 24.2 nM | 35 nM |

Further compounds by falling Kd [1], results first:

| Kd [1] | Kd [2] | Structure (SMILES) |
| --- | --- | --- |
| 11.6 nM | 14.5 nM | CN1CCCC[C@@H]1CC=C1c2ccccc2Cc2ccccc21 |
| 5.23 nM | 22.6 nM | CN1CCCCC1C/C=C/C1c2ccccc2Cc2ccccc21 (stereo not given) |
| 4.92 nM | 2.19 nM | CN1CCCC[C@H]1/C=C/C1c2ccccc2Cc2ccccc21 |
